In assay [1] the test system is HepG2 cells. The experiment in a line: Cell viability in the presence of a mitochondrial inhibitor (rotenone 10 μM). In kind it is cell-based. The following applies: Homo sapiens, HepG2, 48 h, read-out: CELL VIABILITY [%]. As for the experimental part: (§1) Cytoprotection of HepG2 cells by naphthoquinones was quantified in the presence of the mitochondrial toxin, rotenone. Briefly, HepG2 cells were seeded in 96-well plates at 5000 cells/well in DMEM with 0.3 g/l glucose, 10% FBS and Penicillin-Streptomycin-Glutamine. After overnight incubation under standard conditions, cells were treated with the test compounds (10 μM) for 2 days before cells were challenged with 1 μM rotenone in the presence of 10 μM test compounds in Hank's balanced salt solution (HBSS) for 6 hours. This was followed by post-incubation for an additional 18 hours with only 10 μM test compounds in HBSS. For measurement of cell viability, cells were washed with 100 μL PBS twice and then lysed using 40 μL lysis solution (4 mM EDTA, 0.2% Triton X-100) for 5 min at room temperature (RT) on an orbital shaker at 200 rpm. Then 10 μL of the lysate was mixed with 90 μL of enzyme-substrate mixture (as described above) in a white 96 well plate and luminescence was measured immediately using a plate-reader (Fluoroscan Ascent, Thermo Scientific). The data is expressed as % viability compared to the untreated (no-rotenone) control.
The cytoprotective effects of representative compounds of Formula (I) were further examined in vitro in response to rotenone toxicity at (10 μM). […] Cells were treated with the representative compounds of Formula (I) compounds (10 μM) for 2 days before cells were challenged with 10 μM rotenone.
Vitamin K, Menadione and Idebenone were used as comparative controls.

Assay [2] relates to LHON model induced by intravitreal rotenone in C57BL/6 mouse. The experiment in a line: Leber's hereditary optic neuropathy (LHON) mouse model, optomotor response. Type of assay: in vivo. Particulars: rotenone in left eye, 200 mg/kg orally in food. Here is the method: FIG. 5: Efficacy of representative compounds of Formula (I) in leber's hereditary optic neuropathy (LHON) mouse model. LHON induced by rotenone injection in the left eye (5 μM) in C57BL/6 mouse model (Refer to Heitz, F. D et al. (2012). PLoS One., 7(9), e45182). […] Representative compounds (UTA 37 and UTA 77) and idebenone administered at 200 mg/kg over the observation period.
LHON model was induced by intravitreal injection of rotenone into the left eye in C57BL/6 mouse model as described by Heitz et al. 2012. Representative compounds (UTA 37 and UTA 77) and idebenone administered at 200 mg/kg over the observation period. Vision loss was measured by assessing number of head turns.
C57BL/6 mice (male, 8-11 weeks of age, average body weight≈25 g) were used in accordance with the Australian code for the use of animals for scientific purposes and under the required animal ethics approval from the University of Tasmania (UTAS) Animal Ethics Committee (Approval number A0016080). Animals were given at least seven days to acclimatise to the animal facility to reduce stress induced by transportation before being used for behavioural testing. All mice were supplied orally with test compounds by mixing test compounds into individual daily food portions as described previously (Heitz, F. D. et al. (2012). PLoS One., 7(9), e45182). […]

For assay [3], the system named is HepG2 cells. Kind of assay: Acute ATP rescue assay (impaired mitochondrial function, rotenone). Type of assay: cell-based. Particulars: Homo sapiens, 1 h; HepG2; 1 μM quinones with rotenone 10 μM, 60 minutes, glucose-free DMEM; % ATP compared to untreated (no-rotenone) control. Here is the method: HepG2 cells were seeded at a density of 5000 cells per well in a 96-well plate and incubated for 24 hours in DMEM with 0.3 g/l glucose, 10% FBS and Penicillin-Streptomycin-Glutamine. Cells were treated with 1 μM quinones in presence or absence of rotenone (10 μM), for 60 minutes in glucose-free DMEM ATP levels were quantified using luminescence from the ATP-dependent enzymatic oxidation of luciferin by luciferase. Cells were lysed in a volume of 40 μl (4 mM EDTA, 0.2% Triton X-100) for five minutes at room temperature (RT) on an orbital shaker at 200 rpm. […] Luminescence was quantified immediately using a multimode plate reader (Fluoroscan Ascent, Thermo Scientific). ATP levels were standardized to protein levels using a commercial BCA assay (Protein DC; BioRad) and changes were calculated as percentage relative to levels of DMSO-treated control cells. Data is expressed as % ATP compared to the untreated (no-rotenone) control.
Vitamin K, menadione and idebenone were used as comparative controls. DMSO was used as a control.

In assay [4] the test system is HepG2 cells. Kind of assay: Rescue of cell viability in the presence of a mitochondrial inhibitor (rotenone 1 μM). In kind it is cell-based. Particulars: Homo sapiens, HepG2. Here is the method: as §1
The extent of protection of cellular viability against a rotenone challenge of representative compounds of Formula (I) is shown below in Table 5. Vitamin K, Menadione and Idebenone were used as comparative controls. DMSO was used as a control.

SMILES strings stand for the structures.

Regarding `COc1ccc(CCNC(=O)CCCC2=C(C)C(=O)c3ccccc3C2=O)cc1OC` [UTA #77, N-(3,4-dimethoxyphenethyl)-4-(3-methyl-1,4-naphthoquinone-2-yl)butanamide], the viability at 10 µM in the assay on HepG2 cells [1] and with HepG2 cells [4] was 95.9% in each case. Moreover, the “Protection of visual acuity (head turns, optomotor response; in words)” value in assay [2] is “Statistically significant protection of visual acuity”. In addition, the activity at 1 µM with HepG2 cells [3] turned out to be 99.1%.

The values are drawn from patent publication US10934253B2, “Therapeutic compounds and methods” (UNIVERSITY OF TASMANIA, priority 2017, dated 2021).
